Test results as given in patent US9266904B2, “6-bridged heteroaryldihydropyrimidines for the treatment and prophylaxis of hepatitis B virus infection” (priority 2013, dated 2016).
Where two headings read alike, the source gives them in different places.

How the values were obtained:
[1] = system: HBV replication in HepG2.2.15 cells; assay: Anti-HBV activity in vitro in HepG2.2.15 cells (extracellular HBV DNA by qPCR); type: cell-based; conditions: read-out: EC50
Text: HepG2.2.15 and HepDE19 are stably-transfected cell lines containing the HBV genome. Both cell lines are derived from the hepatoblastoma cell line Hep G2 (American Type Culture Collection, ATCC® HB-8065™) by the published procedures described in references: M A Selles et al. Proc. Natl. Acad. Sci. USA 1987, 84, 1005-1009 and H Guo et al. Journal of Virology 2007, 81, 12472-12484, respectively. Both cell lines were maintained in Dulbecco's modified Eagle's medium (DMEM)-F12 medium supplemented with 10% fetal bovine serum, 100 U/mL penicillin, 100 μg/mL streptomycin, and 0.5 mg/mL of G418.
While HepG2.2.15 cells constitutively support HBV replication and production of virus particles, HepDE19 cells are inducible by tetracycline. Addition of 1 μg/mL tetracycline in culture medium suppresses HBV replication in HepDE19 cells, whereas switching to tetracycline-free medium resumes this process.
HepG2.2.15 cells were seeded into 96-well plates (3×10^4 cells in 100 μL media per well) and incubated overnight at 37° C. The test compounds were serially half-log diluted in DMSO, then diluted 100 times in culture media. 100 μL diluted compounds were added into the plates to reach 0.5% final concentration of DMSO in every well. Five days after compound treatment, culture supernatant was collected for further analysis.
For quantitative PCR detection of extracellular HBV DNA, 100 μL culture supernatant was collected and processed in MagNA Pure 96 Nucleic Acid Purification System (Roche Applied Science) for viral DNA extraction. The extracted samples were subjected to HBV DNA quantification by qPCR. The effective compound concentration at which HBV replication is inhibited by 50% (EC50) was determined.
The Examples were tested in the above assays as described herein and found to have EC50<1 μM in HepG2.2.15 assay.

[2] = Human microsomal clearance assay; type: in vitro ADME
Procedure: Microsomes were preincubated with test compound for 10 minutes at 37° C. in 100 mM phosphate buffer with pH 7.4. The reactions were initiated by adding NADPH regenerating system to give a final incubation volume of 400 μL. The incubations finally contained 1 μM test compound, 0.5 mg/mL liver microsomal protein, 3.0 mM glucose 6-phosphate, 1.0 mM NADP, 3.0 mM MgCl2 and 0.05 mg/mL glucose 6-phosphate dehydrogenase in 100 mM phosphate buffer with pH 7.4. After incubation times of 0, 3, 6, 9, 15 and 30 minutes, 50 μL, incubation was transferred to the quench solution containing the internal standard which was 2 μM tolbutamide. After precipitation and centrifugation, test compound concentrations in the samples were determined by LC-MS/MS. Controls of no NADPH regenerating system at zero and 30 minutes were also prepared and analyzed.

[3] = Hepatitis B virus, HepG2.2.15, Anti-HBV activity in HepG2.2.15 cells

SMILES	EC50 [1, 3] [nM]	CLh ([2]; human, 1 μM, pH 7.4) [mL/min/kg]	EC50 ([1]; Anti-HBV activity in HepG2.2.15 cells) [nM]	CLh ([2]; human microsomal clearance) [mL/min/kg]
COC(=O)C1=C(CN2C3COCC2CN(C(=O)CO)C3)NC(c2nccs2)=N[C@H]1c1ccc(F)cc1Cl [Example 21, (R)-4-(2-Chloro-4-fluoro-phenyl)-6-[7-(2-hydroxy-acetyl)-3-oxa-7,9-diaza-bicyclo[3.3.1]non-9-ylmethyl]-2-thiazol-2-yl-1,4-dihydro-pyrimidine-5-carboxylic acid methyl ester]	20	4.3		
COC(=O)C1=C(CN2[C@H]3C[C@H](CC(=O)O)C[C@@H]2C(F)(F)C3)NC(c2nccs2)=N[C@H]1c1ccc(F)cc1Cl [Example 110, 2-[(1S,3S,5R)-8-[[(4R)-4-(2-chloro-4-fluoro-phenyl)-5-methoxycarbonyl-2-thiazol-2-yl-1,4-dihydropyrimidin-6-yl]methyl]-6,6-difluoro-8-azabicyclo[3.2.1]octan-3-yl]acetic acid]	44.3	4.1		
COC(=O)C1=C(CN2[C@@H]3COC[C@H]2[C@H](F)[C@@H](CC(=O)O)C3)NC(c2nccs2)=N[C@H]1c1cccc(F)c1Cl [Example 100, 2-[(1S,5S,6R,7R)-9-[[(4R)-4-(2-chloro-3-fluoro-phenyl)-5-methoxycarbonyl-2-thiazol-2-yl-1,4-dihydropyrimidin-6-yl]methyl]-6-fluoro-3-oxa-9-azabicyclo[3.3.1]nonan-7-yl]acetic acid]	283	0		
COC(=O)C1=C(CN2C3CCC2CN(C(C)=O)C3)NC(c2nccs2)=N[C@H]1c1ccc(F)cc1Cl [Example 122, Methyl (4R)-6-[(3-acetyl-3,8-diazabicyclo[3.2.1]octan-8-yl)methyl]-4-(2-chloro-4-fluoro-phenyl)-2-thiazol-2-yl-1,4-dihydropyrimidine-5-carboxylate]	77.4	7.0		
COC(=O)C1=C(CN2[C@H]3C[C@@H](CC(=O)O)C[C@@H]2C(F)(F)C3)NC(c2nccs2)=N[C@H]1c1cccc(F)c1Br [Example 95, 2-[(1S,3R,5R)-8-[[(4R)-4-(2-bromo-3-fluoro-phenyl)-5-methoxycarbonyl-2-thiazol-2-yl-1,4-dihydropyrimidin-6-yl]methyl]-6,6-difluoro-8-azabicyclo[3.2.1]octan-3-yl]acetic acid]	31.1	0		
COC(=O)C1=C(CN2[C@@H]3COC[C@H]2C[C@@H](NC(N)=O)C3)NC(c2nccs2)=N[C@H]1c1ccc(F)cc1Cl [Example 57, Methyl (4R)-4-(2-chloro-4-fluoro-phenyl)-2-thiazol-2-yl-6-[[(1S,5R)-7-endo-ureido-3-oxa-9-azabicyclo[3.3.1]nonan-9-yl]methyl]-1,4-dihydropyrimidine-5-carboxylate]	21.9	5.0		
CCOC(=O)C1=C(CN2C3COCC2C(F)(F)[C@@H](CC(=O)O)C3)NC(c2nccs2)=N[C@H]1c1cccc(F)c1Cl (stereo partly drawn) [Example 129, 2-[(7R)-9-[[(4R)-4-(2-chloro-3-fluoro-phenyl)-5-ethoxycarbonyl-2-thiazol-2-yl-1,4-dihydropyrimidin-6-yl]methyl]-6,6-difluoro-3-oxa-9-azabicyclo[3.3.1]nonan-7-yl]acetic acid]	21	2.0		
COC(=O)C1=C(CN2[C@H]3C[C@@H](CC(=O)O)C[C@@H]2C(F)(F)C3)NC(c2nccs2)=N[C@H]1c1cccc(F)c1Cl [Example 89, 2-[(1S,3R,5R)-8-[[(4R)-4-(2-chloro-3-fluoro-phenyl)-5-methoxycarbonyl-2-thiazol-2-yl-1,4-dihydropyrimidin-6-yl]methyl]-6,6-difluoro-8-azabicyclo[3.2.1]octan-3-yl]acetic acid]	30.5	0		
CCOC(=O)C1=C(CN2[C@H]3C[C@@H](CC(=O)O)C[C@@H]2C(F)(F)C3)NC(c2nccs2)=N[C@H]1c1ccccc1Br [Example 93, 2-[(1S,3R,5R)-8-[[(4R)-4-(2-bromophenyl)-5-ethoxycarbonyl-2-thiazol-2-yl-1,4-dihydropyrimidin-6-yl]methyl]-6,6-difluoro-8-azabicyclo[3.2.1]octan-3-yl]acetic acid]	28.9	0.2		
COC(=O)C1=C(CN2[C@H]3C[C@@H](CC(=O)O)C[C@@H]2C(F)(F)C3)NC(c2nccs2)=N[C@H]1c1ccc(F)cc1Cl [Example 87, 2-[(1S,3R,5R)-8-[[(4R)-4-(2-chloro-4-fluoro-phenyl)-5-methoxycarbonyl-2-thiazol-2-yl-1,4-dihydropyrimidin-6-yl]methyl]-6,6-difluoro-8-azabicyclo[3.2.1]octan-3-yl]acetic acid]	39.4	0		
COC(=O)C1=C(CN2C3COCC2CC(OC(C)=O)C3)NC(c2nccs2)=N[C@H]1c1ccc(F)cc1Cl (stereo partly drawn) [Example 8, (R)-6-(7-Acetoxy-3-oxa-9-aza-bicyclo[3.3.1]non-9-ylmethyl)-4-(2-chloro-4-fluoro-phenyl)-2-thiazol-2-yl-1,4-dihydro-pyrimidine-5-carboxylic acid methyl ester]		0		
COC(=O)C1=C(CN2C3CC(F)(F)C2C[C@](O)(CC(=O)O)C3)NC(c2nccs2)=N[C@H]1c1ccc(F)cc1Cl (single isomer, unassigned) [Example 117]	40.2	1.8		
CCOC(=O)C1=C(CN2C3COCC2C(F)(F)[C@@H](CC(=O)O)C3)NC(c2nccs2)=N[C@H]1c1ccc(F)c(F)c1C (stereo partly drawn) [Example 127, 2-[(7R)-9-[[(4S)-4-(3,4-difluoro-2-methyl-phenyl)-5-ethoxycarbonyl-2-thiazol-2-yl-1,4-dihydropyrimidin-6-yl]methyl]-6,6-difluoro-3-oxa-9-azabicyclo[3.3.1]nonan-7-yl]acetic acid]	16.1	2.9		
COC(=O)C1=C(CN2[C@H]3C[C@@H](CC(=O)O)C[C@@H]2C(F)(F)C3)NC(c2nccs2)=N[C@H]1c1ccccc1Cl [Example 91, 2-[(1S,3R,5R)-8-[[(4R)-4-(2-chlorophenyl)-5-methoxycarbonyl-2-thiazol-2-yl-1,4-dihydropyrimidin-6-yl]methyl]-6,6-difluoro-8-azabicyclo[3.2.1]octan-3-yl]acetic acid]	90.7	5.1		
COC(=O)C1=C(CN2[C@H]3C[C@@H](CC(=O)O)C[C@@H]2C(F)(F)C3)NC(c2nccs2)=N[C@H]1c1ccc(Cl)c(F)c1 [Example 97, 2-[(1S,3R,5R)-8-[[(48)-4-(4-chloro-3-fluoro-phenyl)-5-methoxycarbonyl-2-thiazol-2-yl-1,4-dihydropyrimidin-6-yl]methyl]-6,6-difluoro-8-azabicyclo[3.2.1]octan-3-yl]acetic acid]			156	0
COC(=O)C1=C(CN2[C@@H]3C[C@H](CC(=O)O)C[C@H]2C(F)(F)C3)NC(c2nccs2)=N[C@H]1c1cccc(F)c1Br [Example 94, 2-[(1R,3S,5S)-8-[[(4R)-4-(2-bromo-3-fluoro-phenyl)-5-methoxycarbonyl-2-thiazol-2-yl-1,4-dihydropyrimidin-6-yl]methyl]-6,6-difluoro-8-azabicyclo[3.2.1]octan-3-yl]acetic acid]	21.7	0		
CCOC(=O)C1=C(CN2[C@@H]3C[C@H](CC(=O)O)C[C@H]2C(F)(F)C3)NC(c2nccs2)=N[C@H]1c1ccccc1Br [Example 92, 2-[(1R,3S,5S)-8-[[(4R)-4-(2-bromophenyl)-5-ethoxycarbonyl-2-thiazol-2-yl-1,4-dihydropyrimidin-6-yl]methyl]-6,6-difluoro-8-azabicyclo[3.2.1]octan-3-yl]acetic acid]	1.5	1.7		
COC(=O)C1=C(CN2C3COCC2CN(C(N)=O)C3)NC(c2nccs2)=N[C@H]1c1ccc(F)cc1Cl [Example 18, (R)-6-(7-Carbamoyl-3-oxa-7,9-diaza-bicyclo[3.3.1]non-9-ylmethyl)-4-(2-chloro-4-fluoro-phenyl)-2-thiazol-2-yl-1,4-dihydro-pyrimidine-5-carboxylic acid methyl ester]	20	1.3		
